Assay results: patent publication US6875775B2, “Triphenylalkene derivatives and their use as selective estrogen receptor modulators” (Hormos Medical Oy LTD, priority 1999, dated 2005)
Where two headings read alike, the source gives them in different places.

What was measured:
immature rat uterus = test: 3 day uterotropic assay in immature female rats; conditions: Table 3
Procedure: Estimation of Estrogenicity and Antiestrogenicity in Vivo
The results have been shown in Table 3 both as per cent of estrogen stimulation (100%), and as inhibition of estrogen action (full inhibition is 100%). The values are given at two dose levels, low i.e. 3-5 mg/kg and high i.e. 10-50 mg/kg. Estrogenic activity can be estimated also after a 4 weeks' treatment of ovariectomized rats based on the uterine size.

MCF-7 cells = test: cells; type: cell-based; conditions: for Killing of MCF-7 cells at the highest investigated concentration (in words): 10 μM, compounds with weak hormonal activity; for cytotoxicity at 10 µM / inhibition at 1 µM / Emax: Homo sapiens, MCF7, 96 h; for cytotoxicity at 10 µM / Maximal Cell Kill (% fraction of dead cells): 10 μmol/l; for cytotoxicity at 10 µM: read-out: Maximal Cell Kill (% fraction of dead cells); for inhibition at 1 µM: read-out: Antagonism at 1 μM (% of full antagonism); for Emax: read-out: Maximal Agonism (% of E2)
Procedure: Evaluation of Estrogenic and Antiestrogenic Properties of Compounds in MCF-7 Cell Growth Experiments in Vitro
For experiments involving hormone or anti-hormone treatment, the cells in exponential growth phase were precultivated in the absence of estradiol for one day. […] After the incubation period the medium was removed. The exposure to study drugs was started immediately by adding fresh medium with 5% stripped serum. Half of the cells were grown with estradiol, half without estradiol. Study compounds (dissolved in ethanol in 0.01 M concentration and diluted with the growth medium as appropriate) were added. The final concentrations of the compounds were 1, 10, and 100 nM, and 1 and 10 μM. The cells were incubated for four days.
This method allows evaluation of estrogenicity based on the ability of the compounds to stimulate the growth of the estrogen-dependent cells in the absence of estradiol.
Estrogenicity was estimated by comparing the maximal growth stimulus (at any concentration) of study compound as percent from growth stimulus by estradiol (100% stimulus). […] At high concentrations molecules may also show toxicity. Toxicity was estimated as the fraction of dead cells (i.e. 100% means that all cells have died during the exposure).

[1] = tested on: ovariectomized (OVX) rats; test: Serum cholesterol level in ovariectomized (OVX) rats after 4 weeks dosing; type: in vivo, rat; conditions: for Effect on cholesterol (in words): OVX rats, Table 4; for Cholesterol level (mmol/l) in serum: OVX rat, 4 weeks dosing
Text: Estimation of Effects to Cholesterol and Bone
(§1) Compounds were given p.o. to female rats for 4 or 5 weeks daily. At the end a blood sample was taken. Serum was separated by centrifugation and frozen until analyzed for total amount of cholesterol. Bone samples were taken from vertebra and tibia. Physical strength of the bones was studied as described by Peng et al, 1994.

[2] = Overall hormonal profile summarised from Tables 2, 3 and 4
ovariectomized rats [3] = test: Size of the uterus after 4 weeks treatment of ovariectomized rats; type: in vivo, rat
[4] = tested on: intact and castrated male rats; test: Weight of the prostate gland in intact and castrated male rats after 4 weeks daily treatment; type: in vivo, rat; conditions: for Weight of the prostate gland (g) mean and sd: 4 weeks daily
ovariectomized rats [5] = test: Maximal load of femoral neck (cantilever bending test) in ovariectomized rats after 4 weeks dosing; type: in vivo, rat; conditions: OVX rats
Procedure: as §1, with “1994. The assessments of the bone included:” for “1994.”
Mechanical Testing of Bones
The mechanical testing of bones was carried out by materials testing machine, constructed in-house at Oulu University (Technical Services Dcpartment of the Medical Faculty). The testing machine is based on lever arm principle. One end of a steel lever is fixed. The pressing rod and the driving motor are connected to the lever arm with a moment ratio of 12.5 cm/50 cm=¼. As a driving motor a linear actuator (SEY 10 Magnetic Elektromotoren AG, Switzerland) is used to obtain constant vertical movement (0.62 cm/s). The interchangeable compression head is mounted on the pressing rod for different tests transmitting compressive force to the specimen, and moving at a constant speed of 0.155 mm/s up to a maximal load capacity of 1200 N. The pressing rod is guided via an axial ball bearing to keep the movement vertical. Compressive force is measured by a temperature-compensated force sensor, which is attached to the stationary part of the compression stage. The measuring electronics include sensor calibration and adjustments.
The maximal load on the femoral neck was measured by the cantilever bending test. The supporter for the bone was a thick polymethyl methacrylate plate in which several holes of different sizes were drilled. On one side of each hole a groove was engraved for the […] trochanter of the femur. The femur was cut exactly between the middle and lower third of the shaft. The bone was inserted perpendicularly and tightly into a suitable hole on the supporter. The lesser trochanter of each bone touched the surface of the plate. This procedure allowed rapid and stable fixation of the bone without using any additional embedding materials. […]

[6] = tested on: DMBA-induced rat mammary gland cancer; test: Antitumor activity in DMBA-induced rat mammary gland cancer model; type: in vivo
Procedure: Estimation of Antitumor Activity in Vivo
Antitumor activity was estimated by using DMBA (dimethylbenz[a] anthracene) model. One single peroral dose of DMBA (12 mg) initiates mammary gland carcinogenesis. New compounds were administered for 5 weeks when palpable tumors appeared. Size of the tumors and number of new tumors were carefully estimated once a week until termination. The model has been described in detail by Kangas et al, 1986. The growth of the tumors was measured once a week. All tumors were classified according to their growth properties to progressing, stable and regressing ones. Disappeared tumors were separately calculated. The tumors were considered to be progressing, if the tumor volume grew more than 8-fold during the 5 weeks dosing period, and regressing if the tumor volume decreased to one fourth or less from the volume in the beginning. If tumor volume changed less or remained unchanged, the tumors were considered to be stable.

ovariectomized rats [7] = test: Ash weight of tibial epiphyses in ovariectomized rats after 4 weeks dosing; type: in vivo, rat; conditions: OVX rats
Text: as §1, with “1994. The assessments of the bone included:” for “1994.”
Ash Weight of Tibial Epiphyses
Epiphyses of one tibia was carefully prepared and burned. Samples were burned to remove water and organic material. Ash weight relates to the mineral content of the bone. In addition, bone samples were taken to study the histomorphometry. In some cases the bone formation was studied by injecting tetracycline (50 mg/kg i.p. 10 days before autopsy) and calcein (20 mg/kg i.p. 3 days before autopsy). The method is based on permanent binding of tetracycline into growing bone and its detection by fluorescence (Peng et al, 1994).

[8] = Without estradiol (E2), maximal growth stimulus at any concentration, 4 days
[9] = 15 mg/kg p.o. daily for 5 weeks

CN(C)CCOc1ccc(/C(=C(/CCCl)c2ccccc2)c2ccc(F)cc2)cc1 [No. 1, (E)-(2-{4-[4-Chloro-1-(4-fluorophenyl)-2-phenylbut-1-enyl]phenoxy}ethyl)-dimethylamine]
Estrogenic action in vivo / in the uterus (in words) (immature rat uterus): weak estrogen in vivo | Killing of MCF-7 cells at the highest investigated concentration (in words) (MCF-7 cells): kill MCF-7 cells (human breast cancer cells) effectively | Estrogenic action in vitro (in words) (MCF-7 cells; in vitro, Table 2): no estrogenic action in vitro

CN(C)CCOc1ccc(/C(=C(/CCCl)c2ccccc2)c2ccc(Cl)cc2)cc1 [No. 3, (E)-(2-{4-[4-Chloro-1-(4-chlorophenyl)-2-phenylbut-1-enyl]phenoxy}ethyl)-dimethylamine]
Effect on cholesterol (in words) [1]: decrease cholesterol | Killing of MCF-7 cells at the highest investigated concentration (in words) (MCF-7 cells): kill MCF-7 cells (human breast cancer cells) effectively | Estrogenic and antiestrogenic action (in words) [2]: weak estrogenic and no antiestrogenic action

OCCOCCOc1ccc(/C(=C(/CCCl)c2ccccc2)c2ccccc2)cc1 [No. 19, (Z)-2-{2-[4-(4-Chloro-1,2-diphenylbut-1-enyl)phenoxy]ethoxy}ethanol]
Uterine size (ovariectomized rats [3]; 1.0 mg/kg peroral daily): 0.192 ± 0.029 g | Uterine size (ovariectomized rats [3]; 5.0 mg/kg peroral daily): 0.221 ± 0.023 g | Cholesterol level (mmol/l) in serum ([1]; 0.3 mg/kg): 3.6 ± 0.4 mmol/L | Cholesterol level (mmol/l) in serum ([1]; 10 mg/kg): 3.9 ± 0.6 mmol/L | Effect on cholesterol (in words) [1]: decrease cholesterol | Killing of MCF-7 cells at the highest investigated concentration (in words) (MCF-7 cells): kill MCF-7 cells (human breast cancer cells) effectively | cytotoxicity at 10 µM (MCF-7 cells; With estradiol (E2)): 50% | cytotoxicity at 10 µM (MCF-7 cells; Without estradiol (E2)): 14% | inhibition at 1 µM (MCF-7 cells; With estradiol (E2), 1 μM): 21% | Emax (MCF-7 cells; [8]): 14% | Weight of the prostate gland (g) mean and sd ([4]; 0.5 mg/kg to castrated rats): 0.59 ± 0.07 g | Weight of the prostate gland (g) mean and sd ([4]; 0.5 mg/kg, intact male rats): 2.66 ± 0.21 g | Weight of the prostate gland (g) mean and sd ([4]; 5.0 mg/kg to castrated rats): 0.62 ± 0.07 g | Weight of the prostate gland (g) mean and sd ([4]; 5.0 mg/kg, intact male rats): 1.58 ± 0.5 g | Estrogenic action on the weight of the prostate gland (in words) ([4]; at doses which are active in DMBA-induced mammary tumor model): does not show any estrogenic action | Estrogenic and antiestrogenic action (in words) [2]: weak estrogenic and no antiestrogenic action | Maximal load (N) of femoral neck (ovariectomized rats [5]; 1.0 mg/kg p.o.): 81.6 ± 7.9 N | Maximal load (N) of femoral neck (ovariectomized rats [5]; 5.0 mg/kg p.o.): 85.7 ± 17.0 N | Disappeared tumors (per cent of total tumor number) ([6]; 3 mg/kg p.o. daily for 5 weeks): 20% | Growing tumors (per cent of total tumor number) ([6]; 3 mg/kg p.o. daily for 5 weeks): 20% | Regressing tumors (per cent of total tumor number) ([6]; 3 mg/kg p.o. daily for 5 weeks): 40% | Stable tumors (per cent of total tumor number) ([6]; 3 mg/kg p.o. daily for 5 weeks): 20% | Disappeared tumors (per cent of total tumor number) [6, 9]: 14% | Growing tumors (per cent of total tumor number) [6, 9]: 14% | Regressing tumors (per cent of total tumor number) [6, 9]: 57% | Stable tumors (per cent of total tumor number) [6, 9]: 14% | Anticancer efficacy in vivo compared with tamoxifen and toremifene (in words) ([6]; DMBA-induced rat mammary tumor model, even at very low doses): more effective anticancer drug in vivo | Ash weight (mg) of tibial epiphyses (ovariectomized rats [7]; 1.0 mg/kg p.o.): 34.8 ± 1.3 mg | Ash weight (mg) of tibial epiphyses (ovariectomized rats [7]; 5.0 mg/kg p.o.): 34.9 ± 1.9 mg

OCC(O)COc1ccc(/C(=C(/CCCl)c2ccccc2)c2ccccc2)cc1 (centres unmarked) [No. 20, (Z)-3-[4-(4-Chloro-1,2-diphenyl-but-1-enyl)phenoxy]propane-1,2-diol]
Uterine size (ovariectomized rats [3]; 1.0 mg/kg peroral daily): 0.133 ± 0.032 g | Cholesterol level (mmol/l) in serum ([1]; 1 mg/kg): 3.3 ± 0.6 mmol/L | Cholesterol level (mmol/l) in serum ([1]; 5 mg/kg): 2.3 ± 0.4 mmol/L | Effect on cholesterol (in words) [1]: decrease cholesterol | cytotoxicity at 10 µM (MCF-7 cells; With estradiol (E2)): 60% | cytotoxicity at 10 µM (MCF-7 cells; Without estradiol (E2)): 5% | inhibition at 1 µM (MCF-7 cells; With estradiol (E2), 1 μM): 25% | Emax (MCF-7 cells; [8]): 8% | Estrogenic and antiestrogenic action (in words) [2]: weak estrogenic and no antiestrogenic action | Maximal load (N) of femoral neck (ovariectomized rats [5]; 3.0 mg/kg p.o.): 81.7 ± 15.2 N | Ash weight (mg) of tibial epiphyses (ovariectomized rats [7]; 3.0 mg/kg p.o.): 35.0 ± 3.2 mg

CN(C)CCOc1cccc(/C(=C(/CCCl)c2ccccc2)c2ccccc2)c1 [No. 33, (Z)-{2-[3-(4-Chloro-1,2-diphenylbut-1-enyl)phenoxy]ethyl}dimethylamine]
Effect on cholesterol (in words) [1]: decrease cholesterol | Emax (MCF-7 cells; [8]): 20% | Cytotoxic action (in words) (MCF-7 cells; Table 2): weak

C#CCN(C)CCOc1ccc(/C(=C(/CCCl)c2ccccc2)c2ccccc2)cc1 [No. 44, (Z)-{2-[4-(4-Chloro-1,2-diphenylbut-1-enyl)phenoxy]ethyl}-methylprop-2-ynylamine]
cytotoxicity at 10 µM (MCF-7 cells; With estradiol (E2)): 95% | cytotoxicity at 10 µM (MCF-7 cells; Without estradiol (E2)): 78% | inhibition at 1 µM (MCF-7 cells; With estradiol (E2), 1 μM): 8% | Emax (MCF-7 cells; [8]): 24% | Estrogenic and antiestrogenic action (in words) [2]: weak estrogenic and no antiestrogenic action

E-3-(4-Chloro-1-{4-[2-(2-hydroxyethoxy)ethoxy]phenyl}-2-phenylbut-1-enyl)phenol [Example 11]
Antagonism at 1 μM (% of full antagonism) (MCF-7 cells; With estradiol (E2), 1 μM): 0 % of full antagonism | Maximal Cell Kill (% fraction of dead cells) (MCF-7 cells; With estradiol (E2)): 55 % fraction of dead cells | Maximal Cell Kill (% fraction of dead cells) (MCF-7 cells; Without estradiol (E2)): 26 % fraction of dead cells | Maximal Agonism (% of E2) (MCF-7 cells; [8]): 14 % of E2 | Estrogenic and antiestrogenic action (in words) [2]: weak estrogenic and no antiestrogenic action
